From patent publication US9115144B2, “Fused heterocyclic derivative and pharmaceutical use thereof” (KISSEI PHARMACEUTICAL CO., LTD., priority 2011, dated 2015)

molecular target: Xanthine oxidase (from bovine milk, Sigma) (Bos taurus (Bovine), UniProt P80457); test: Xanthine oxidase inhibitory activity; assay type: biochemical; conditions: xanthine 200 μM added at 100 μL/well, 10 minutes at room temperature, absorbance at 290 nm
Procedure: Xanthine Oxidase Inhibitory Activity
(1) Preparation of Test Compounds
Test compounds were dissolved in dimethyl sulfoxide (DMSO) (manufactured by Wako pure chemical) at 40 mM concentration and then diluted to intended concentrations with phosphate-buffered saline (PBS).
(2) Method for Measurement
Xanthine oxidase (from bovine milk, Sigma) was prepared with phosphate-buffered saline (PBS) at 0.02 units/mL, and then the solution was added to 96 well plates at 50 μL/well. In addition, test compounds diluted with PBS were added at 50 μL/well. Xanthine (manufactured by Wako pure chemical) at 200 μM prepared with PBS was added at 100 μL/well, and the reaction was conducted for 10 minutes at room temperature. Absorbance at 290 nm was measured by using a microplate reader SpectraMax Plus 384 (manufactured by Molecular device). The absorbance under a condition without xanthine is 0%, and control without test compounds is 100%. Fifty % inhibitory concentration of a test compounds (IC50) was calculated (Table 5). “Ex. No.” in the table indicates Example number.

Sequence of Xanthine oxidase (from bovine milk, Sigma) (P80457 whole entry): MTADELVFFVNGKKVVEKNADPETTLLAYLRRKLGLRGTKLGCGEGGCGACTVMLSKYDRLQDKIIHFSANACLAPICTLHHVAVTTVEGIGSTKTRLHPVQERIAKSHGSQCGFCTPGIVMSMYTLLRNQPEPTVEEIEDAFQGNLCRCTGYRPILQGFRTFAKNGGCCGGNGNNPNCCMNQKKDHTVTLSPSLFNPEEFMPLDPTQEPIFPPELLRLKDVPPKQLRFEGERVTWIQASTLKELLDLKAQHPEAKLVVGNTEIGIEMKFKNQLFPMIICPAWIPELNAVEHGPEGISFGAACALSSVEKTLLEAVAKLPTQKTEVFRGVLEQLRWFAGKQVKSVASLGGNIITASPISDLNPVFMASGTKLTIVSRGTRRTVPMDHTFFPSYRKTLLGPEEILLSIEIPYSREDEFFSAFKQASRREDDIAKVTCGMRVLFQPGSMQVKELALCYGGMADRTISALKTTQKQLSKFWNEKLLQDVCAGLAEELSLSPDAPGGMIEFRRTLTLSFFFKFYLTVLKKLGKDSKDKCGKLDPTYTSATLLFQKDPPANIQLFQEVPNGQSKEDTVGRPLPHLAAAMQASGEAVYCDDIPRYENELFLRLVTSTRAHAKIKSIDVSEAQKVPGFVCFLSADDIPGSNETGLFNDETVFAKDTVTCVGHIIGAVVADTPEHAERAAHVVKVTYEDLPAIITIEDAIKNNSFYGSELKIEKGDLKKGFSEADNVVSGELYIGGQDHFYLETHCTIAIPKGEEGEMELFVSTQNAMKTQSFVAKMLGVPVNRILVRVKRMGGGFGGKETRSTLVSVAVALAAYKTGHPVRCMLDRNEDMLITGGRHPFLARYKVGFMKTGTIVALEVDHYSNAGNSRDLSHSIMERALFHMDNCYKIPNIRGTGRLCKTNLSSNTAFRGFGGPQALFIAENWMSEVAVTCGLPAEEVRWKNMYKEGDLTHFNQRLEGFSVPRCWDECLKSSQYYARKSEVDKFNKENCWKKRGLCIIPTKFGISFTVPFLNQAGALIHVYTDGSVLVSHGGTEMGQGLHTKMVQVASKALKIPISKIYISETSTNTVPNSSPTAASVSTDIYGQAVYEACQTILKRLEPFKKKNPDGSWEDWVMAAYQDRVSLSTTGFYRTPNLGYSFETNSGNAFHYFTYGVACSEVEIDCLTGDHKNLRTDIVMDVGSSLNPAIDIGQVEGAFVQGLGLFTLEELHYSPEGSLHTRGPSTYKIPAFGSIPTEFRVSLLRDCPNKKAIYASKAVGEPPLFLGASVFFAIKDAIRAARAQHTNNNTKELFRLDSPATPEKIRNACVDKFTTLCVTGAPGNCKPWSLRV

Row | IC50 | SMILES
1 | 14 nM | N#Cc1cn(-c2ccc(C(=O)O)c(O)c2)c2sc(Br)cc12 [Example 8]
2 | 13 nM | N#Cc1cn(-c2ccc(C(=O)O)c(O)c2)c2sccc12 [Example 9]

Further lines, the compound ahead of its results:

Row | SMILES | IC50
3 | N#Cc1cn(-c2ccc(C(=O)O)c(O)c2)c2ccsc12 [Example 5, 4-(6-Cyano-thieno[3,2-b]pyrrol-4-yl)-2-hydroxybenzoic acid] | 10 nM
4 | N#Cc1cn(-c2ccc(C(=O)O)c(O)c2)c2cscc12 [Example 7] | 10 nM
5 | Cc1cc2c(s1)c(C#N)cn2-c1ccc(C(=O)O)c(O)c1 [Example 1, 4-(6-Cyano-2-methyl-thieno[3,2-b]pyrrol-4-yl)-2-hydroxybenzoic acid] | 13 nM

molecular target: human URAT1 (Homo sapiens (Human), UniProt Q96S37); test: Inhibitory activity of uric acid transport with human URAT1 expressing cells; assay type: cell-based; conditions: 10 μM test compound; URAT1-expressing HEK293 cells; 14C uric acid 50 μM, 2 minutes at 37° C.; read-out: Percent inhibition of uric acid uptake
Sequence (Q96S37 whole entry): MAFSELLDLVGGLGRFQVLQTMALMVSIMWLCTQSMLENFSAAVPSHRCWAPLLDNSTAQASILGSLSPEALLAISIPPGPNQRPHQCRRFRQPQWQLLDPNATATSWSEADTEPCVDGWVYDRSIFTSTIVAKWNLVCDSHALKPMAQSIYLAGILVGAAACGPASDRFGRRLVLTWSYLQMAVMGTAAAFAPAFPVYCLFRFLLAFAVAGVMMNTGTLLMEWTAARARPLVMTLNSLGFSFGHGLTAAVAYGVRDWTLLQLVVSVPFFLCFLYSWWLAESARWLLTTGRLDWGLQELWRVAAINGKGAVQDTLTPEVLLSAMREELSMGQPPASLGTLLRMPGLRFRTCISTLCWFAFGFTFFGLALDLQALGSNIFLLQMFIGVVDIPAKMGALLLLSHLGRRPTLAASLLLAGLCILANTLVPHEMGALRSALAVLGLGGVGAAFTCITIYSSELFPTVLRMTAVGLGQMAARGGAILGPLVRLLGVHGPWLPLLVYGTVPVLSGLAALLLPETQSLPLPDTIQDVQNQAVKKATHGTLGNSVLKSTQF
Procedure: Inhibitory Activity of Uric Acid Transport with Human URAT1 Expressing Cells
(1) Cells Used in the Test
URAT1-expressing HEK293 cells (HEK293 cells transfected with vector containing human URAT1 cDNA) and control cells (HEK293 cells transfected with vector alone) were used.
URAT1-expressing cells and control cells were seeded in collagen I-coated 24-well plates (manufactured by Becton, Dickinson and Company) at 1 to 4×10^5 cells/well, and cultured in CO2 incubator (37° C., CO2: 5%) for 1 to 3 days, and then the following measurement of uric acid transport was conducted. […]
After the medium was removed from the plates in which cells were seeded, and 1 mL of HBSS was added to the cells. […] The radioactivity was measured by means of a liquid scintillation counter. […]
Protein concentration in the cell lysates was determined by BCA Protein Assay Kit (manufactured by Pierce) and then amount of protein (mg/well) was calculated. […]
Uric acid uptake activity in each well was calculated by the following formula. Uric acid uptake activity (p mol/mg protein)=radioactivity (dpm/well)/[amount of protein (mg/well)×concentration of radioactivity in HBSS containing ^14C uric acid (dpm/p mol)]
Percent inhibition was calculated according to the following formula. […]

Row | inhibition at 10 µM | SMILES
6 | ≥ 50% | N#Cc1cn(-c2ccc(C(=O)O)c(O)c2)c2sccc12 [Example 9]
